From patent US8513268B2, “1H-quinazoline-2,4-diones processes for their production, pharmaceutical compositions, and treatment for epilepsy” (Novartis AG, priority 2005, dated 2013) come the findings set out here.

Each structure is given as a SMILES string.

In the case of `COC(c1cc2c(=O)n(NS(C)(=O)=O)c(=O)[nH]c2cc1C(F)(F)F)C(C)C` (stereo not shown) [Example 23, N-[6-(1-Methoxy-2-methyl-propyl)-2,4-dioxo-7-trifluoromethyl-1,4-dihydro-2H-quinazolin-3-yl]-methanesulfonamide], the melting point (in general, the temperature of the solid-liquid transition) was 227 to 229 °C. The compound `CS(=O)(=O)Nn1c(=O)[nH]c2cc(C(F)(F)F)c(C3CCCO3)cc2c1=O` (stereo not shown) [Example 12, N-[2,4-Dioxo-6-(tetrahydro-furan-2-yl)-7-trifluoromethyl-1,4-dihydro-2H-quinazolin-3-yl]-methanesulfonamide] came in with a melting point of 254 to 257 °C. Compound `CS(=O)(=O)Nn1c(=O)[nH]c2cc(C(F)(F)F)c(C3CCCCO3)cc2c1=O` (stereo not shown) [Example 24, N-[2,4-Dioxo-6-(tetrahydro-pyran-2-yl)-7-trifluoromethyl-1,4-dihydro-2H-quinazolin-3-yl]-methanesulfonamide] showed a melting point of 275 to 280 °C. On to `CC(=O)c1cc2c(=O)n(NS(C)(=O)=O)c(=O)[nH]c2cc1C(F)(F)F` [Example 1, N-(6-Acetyl-2,4-dioxo-7-trifluoromethyl-1,4-dihydro-2H-quinazolin-3-yl)-methanesulfonamide], for which the melting point lay in the range of 258 to 265 °C. Turning to `CC(C)C(=O)c1cc2c(=O)n(NS(C)(=O)=O)c(=O)[nH]c2cc1C(F)(F)F` [Example 21, N-(6-Isobutyryl-2,4-dioxo-7-trifluoromethyl-1,4-dihydro-2H-quinazolin-3-yl)-methanesulfonamide], the melting point lay in the range of 228 to 231 °C. Compound `CC(O)c1cccc(-c2cc3c(=O)n(NS(C)(=O)=O)c(=O)[nH]c3cc2C(F)(F)F)c1` (stereo not shown) [Example 37, N-{6-[3-(1-Hydroxy-ethyl)-phenyl]-2,4-dioxo-7-trifluoromethyl-1,4-dihydro-2H-quinazolin-3-yl}-methanesulfonamide] came in with a melting point of 165 to 169 °C.

Compound `CN(C)Cc1cccc(-c2cc3c(=O)n(NS(C)(=O)=O)c(=O)[nH]c3cc2C(F)(F)F)c1` [Example 39, N-[6-(3-Dimethylaminomethyl-phenyl)-2,4-dioxo-7-trifluoromethyl-1,4-dihydro-2H-quinazolin-3-yl]-methanesulfonamide] had a melting point of 346 to 348 °C. To `CCC(O)c1cc2c(=O)n(NS(C)(=O)=O)c(=O)[nH]c2cc1C(F)(F)F` (stereo not shown) [Example 7, N-[6-(1-Hydroxy-propyl)-2,4-dioxo-7-trifluoromethyl-1,4-dihydro-2H-quinazolin-3-yl]-methanesulfonamide] belongs 219 to 222 °C. On to `CS(=O)(=O)Nn1c(=O)[nH]c2cc(C(F)(F)F)c(CCCO)cc2c1=O` [Example 25, N-[6-(3-Hydroxy-propyl)-2,4-dioxo-7-trifluoromethyl-1,4-dihydro-2H-quinazolin-3-yl]-methanesulfonamide], for which the melting point lay in the range of 243 to 247 °C.

`CC(OC1CCCC1)c1cc2c(=O)n(NS(C)(=O)=O)c(=O)[nH]c2cc1C(F)(F)F` (stereo not shown) [Example 17, N-[6-(1-Cyclopentyloxy-ethyl)-2,4-dioxo-7-trifluoromethyl-1,4-dihydro-2H-quinazolin-3-yl]-methanesulfonamide]: the melting point is 188 to 192 °C. In turn, `CCCOC(C)c1cc2c(=O)n(NS(C)(=O)=O)c(=O)[nH]c2cc1C(F)(F)F` (stereo not shown) [Example 14, N-[2,4-Dioxo-6-(1-propoxy-ethyl)-7-trifluoromethyl-1,4-dihydro-2H-quinazolin-3-yl]-methanesulfonamide] displayed a melting point of 95 to 105 °C. `CC(=O)c1cccc(-c2cc3c(=O)n(NS(C)(=O)=O)c(=O)[nH]c3cc2C(F)(F)F)c1` [Example 36, N-[6-(3-Acetyl-phenyl)-2,4-dioxo-7-trifluoromethyl-1,4-dihydro-2H-quinazolin-3-yl]-methanesulfonamide] yielded a melting point of 220 to 222 °C.

Compound `COC(C)c1cc2c(=O)n(NS(C)(=O)=O)c(=O)[nH]c2cc1C(F)(F)F` (stereo not shown) [Example 3, N-[6-(1-Methoxy-ethyl)-2,4-dioxo-7-trifluoromethyl-1,4-dihydro-2H-quinazolin-3-yl]-methanesulfonamide] displayed a melting point of 233 to 236 °C.
